Measurements published in the CheMixHub viscosity set.
Where “and” joins values, the source holds several entries; their conditions need not be identical. Equal values may be shown once.

Test: xn = mol fraction of the nth substance listed

CCNCCO + CCCCOCCO
viscosity, 101.33 kPa
Details | 293.15 K | 298.15 K | 303.15 K | 308.15 K | 313.15 K | 318.15 K | 323.15 K
x1 = 0.1 | 3.962 mPa·s | 3.42 mPa·s | 2.977 mPa·s | 2.61 mPa·s | 2.304 mPa·s | 2.046 mPa·s | 1.828 mPa·s
x1 = 0.13 | 3.96 mPa·s | 3.42 mPa·s | 2.98 mPa·s | 2.61 mPa·s | 2.3 mPa·s | 2.05 mPa·s | 1.83 mPa·s
x1 = 0.2 | 4.804 mPa·s | 4.103 mPa·s | 3.536 mPa·s | 3.07 mPa·s | 2.685 mPa·s | 2.365 mPa·s | 2.096 mPa·s
x1 = 0.36 | 5.75 mPa·s | 4.86 mPa·s | 4.15 mPa·s | 3.57 mPa·s | 3.09 mPa·s | 2.7 mPa·s | 2.38 mPa·s
x1 = 0.4 | 5.753 mPa·s | 4.86 mPa·s | 4.146 mPa·s | 3.567 mPa·s | 3.094 mPa·s | 2.703 mPa·s | 2.377 mPa·s
x1 = 0.5 | 6.822 mPa·s | 5.698 mPa·s | 4.811 mPa·s | 4.101 mPa·s | 3.527 mPa·s | 3.057 mPa·s | 2.67 mPa·s
x1 = 0.57 | 7.99 mPa·s | 6.61 mPa·s | 5.53 mPa·s | 4.67 mPa·s | 3.98 mPa·s | 3.43 mPa·s | 2.97 mPa·s
x1 = 0.6 | 7.994 mPa·s | 6.608 mPa·s | 5.525 mPa·s | 4.67 mPa·s | 3.984 mPa·s | 3.429 mPa·s | 2.975 mPa·s
x1 = 0.7 | 9.303 mPa·s | 7.606 mPa·s | 6.3 mPa·s | 5.278 mPa·s | 4.466 mPa·s | 3.815 mPa·s | 3.288 mPa·s
x1 = 0.8 | 10.71 mPa·s and 12.33 mPa·s | 8.67 mPa·s and 9.873 mPa·s | 7.112 mPa·s and 8.025 mPa·s | 5.907 mPa·s and 6.61 mPa·s | 4.962 mPa·s and 5.51 mPa·s | 4.21 mPa·s and 4.644 mPa·s | 3.606 mPa·s and 3.953 mPa·s
x1 = 0.9 | 14.15 mPa·s | 11.21 mPa·s | 9.023 mPa·s | 7.368 mPa·s | 6.098 mPa·s | 5.103 mPa·s | 4.316 mPa·s

CCOC(=O)CCl + Brc1ccccc1
viscosity [mPa·s], 101.3 kPa
Details | x1 = 0.1089 | x1 = 0.2034 | x1 = 0.3024 | x1 = 0.3976 | x1 = 0.5011 | x1 = 0.6018 | x1 = 0.6992 | x1 = 0.7963 | x1 = 0.8948
298.15 K | 1.079 | 1.079 | 1.08 | 1.082 | 1.085 | 1.087 | 1.092 | 1.096 | 1.098
303.15 K | 1.012 | 1.011 | 1.01 | 1.011 | 1.012 | 1.014 | 1.017 | 1.018 | 1.01
308.15 K | 0.947 | 0.943 | 0.94 | 0.938 | 0.938 | 0.942 | 0.941 | 0.941 | 0.939

CCCCOCCO + Cc1ccccc1C
viscosity [mPa·s], 101 kPa
Details | 298.15 K | 308.15 K
x1 = 0.0549 | 0.797 | 0.686
x1 = 0.1475 | 0.891 | 0.756
x1 = 0.2508 | 1.004 | 0.84
x1 = 0.3485 | 1.129 | 0.933
x1 = 0.4527 | 1.286 | 1.052
x1 = 0.5 | 1.366 | 1.113
x1 = 0.5489 | 1.457 | 1.182
x1 = 0.6483 | 1.666 | 1.341
x1 = 0.7518 | 1.925 | 1.54
x1 = 0.8493 | 2.216 | 1.765
x1 = 0.9524 | 2.586 | 2.053

CCCCOCCO + OCCO
101 kPa
Details | viscosity [mPa·s]
293.15 K, x1 = 0.0517 | 19.96
293.15 K, x1 = 0.099 | 18.69
293.15 K, x1 = 0.2024 | 15.74
293.15 K, x1 = 0.2993 | 13.1
293.15 K, x1 = 0.4009 | 10.68
293.15 K, x1 = 0.4475 | 9.72
293.15 K, x1 = 0.5022 | 8.702
293.15 K, x1 = 0.5447 | 7.996
293.15 K, x1 = 0.6011 | 7.158
293.15 K, x1 = 0.7009 | 5.905
293.15 K, x1 = 0.8048 | 4.826
293.15 K, x1 = 0.8992 | 3.996
293.15 K, x1 = 0.9413 | 3.661
298.15 K, x1 = 0.0515 | 16.18
298.15 K, x1 = 0.1025 | 15.09
298.15 K, x1 = 0.1973 | 12.9
298.15 K, x1 = 0.2977 | 10.71
298.15 K, x1 = 0.3863 | 9.036
298.15 K, x1 = 0.4425 | 8.124
298.15 K, x1 = 0.4743 | 7.652
298.15 K, x1 = 0.5523 | 6.625
298.15 K, x1 = 0.6012 | 6.061
298.15 K, x1 = 0.6986 | 5.082
298.15 K, x1 = 0.783 | 4.349
298.15 K, x1 = 0.8985 | 3.469
298.15 K, x1 = 0.9474 | 3.145
303.15 K, x1 = 0.0582 | 12.73
303.15 K, x1 = 0.098 | 12.07
303.15 K, x1 = 0.2036 | 10.21
303.15 K, x1 = 0.2996 | 8.621
303.15 K, x1 = 0.4 | 7.191
303.15 K, x1 = 0.4503 | 6.57
303.15 K, x1 = 0.5015 | 5.989
303.15 K, x1 = 0.543 | 5.563
303.15 K, x1 = 0.6003 | 5.022
303.15 K, x1 = 0.703 | 4.185
303.15 K, x1 = 0.8036 | 3.495
303.15 K, x1 = 0.8935 | 2.979
303.15 K, x1 = 0.95 | 2.691

O=C(OCc1ccccc1)c1ccccc1 + CCOC(=O)c1ccccc1C(=O)OCC
313.15 K, 101.33 kPa
Details | viscosity [mPa·s]
x1 = 0.25 | 5.87
x1 = 0.5 | 5.54
x1 = 0.75 | 5.27

COC(=O)c1ccccc1 + COCCO
viscosity [mPa·s], 101 kPa
Details | x2 = 0.0991 | x2 = 0.2001 | x2 = 0.3023 | x2 = 0.3992 | x2 = 0.4989 | x2 = 0.5981 | x2 = 0.699 | x2 = 0.7991 | x2 = 0.8983
298.15 K | 1.735 | 1.689 | 1.686 | 1.675 | 1.646 | 1.675 | 1.668 | 1.699 | 1.693
303.15 K | 1.571 | 1.523 | 1.524 | 1.511 | 1.478 | 1.508 | 1.5 | 1.525 | 1.522
308.15 K | 1.427 | 1.385 | 1.378 | 1.366 | 1.34 | 1.362 | 1.356 | 1.375 | 1.372

CC(C)OCCO + CC(C)O
298.15 K, 101.33 kPa
Details | viscosity [mPa·s]
x1 = 0.0272 | 2.051
x1 = 0.0618 | 2.009
x1 = 0.0768 | 1.995
x1 = 0.092 | 1.986
x1 = 0.1373 | 1.959
x1 = 0.1766 | 1.941
x1 = 0.2006 | 1.929
x1 = 0.2467 | 1.914
x1 = 0.2976 | 1.9
x1 = 0.3502 | 1.899
x1 = 0.3949 | 1.902
x1 = 0.4259 | 1.903
x1 = 0.4507 | 1.908
x1 = 0.5015 | 1.918
x1 = 0.5529 | 1.93
x1 = 0.6181 | 1.948
x1 = 0.6764 | 1.971
x1 = 0.73 | 1.991
x1 = 0.7886 | 2.014
x1 = 0.8718 | 2.049
x1 = 0.9241 | 2.064
x1 = 0.9782 | 2.083

CCOC(=O)CCl + CCCCCCC
viscosity [mPa·s], 101.33 kPa
Details | x1 = 0.1037 | x1 = 0.203 | x1 = 0.3009 | x1 = 0.4005 | x1 = 0.4992 | x1 = 0.6048 | x1 = 0.705 | x1 = 0.8022 | x1 = 0.8954
298.15 K | 0.419 | 0.45 | 0.484 | 0.53 | 0.585 | 0.651 | 0.726 | 0.817 | 0.93
303.15 K | 0.398 | 0.424 | 0.457 | 0.498 | 0.545 | 0.608 | 0.676 | 0.761 | 0.859
308.15 K | 0.378 | 0.402 | 0.432 | 0.469 | 0.522 | 0.569 | 0.634 | 0.71 | 0.8
